Reference: patent publication US11760733B2, “Small molecule regulators of mitochondrial fusion and methods of use thereof” (Washington University, priority 2017, dated 2023)
“Also recorded” adds a separate entry of the source.

Assays:
[1] = system: MFN2 Asp378 and Ala378 mutants; test: Mitochondrial fusion in cells expressing MFN2 Ser378 mutants; type: cell-based, human; settings: phosphomimic Asp378 vs nonphosphorylatable Ala378
Excerpt: On the basis of fluorescence resonance energy transfer (FRET) analysis of MFN2 labeled at the N and C termini, mitofusin agonists promoted an open MFN2 conformation favoring mitochondrial fusion, with a rank order paralleling that for HR2 binding and mitochondrial fusion (see e.g., FIG. 11G; compare to FIG. 11B and FIG. 11C), supporting allosteric activation.
Human Mfn2 Ser378 was mutated to Ala or Asp by site-directed mutagenesis using the QuikChange Lightning kit (Agilent Technologies Inc.) and primers: […]
Mfn2 and its mutants were sub-cloned into adenoviral vector Type 5 (dE1/E3) with RGD-fiber modification (Vector Biolabs) using BamHI/XhoI. All constructs were verified by Sanger DNA sequencing. Adeno-viral PINK1 was purchased from Vector Biolabs.

Mfn2 HR2 target peptide = target: T1, Mfn2 HR2 target peptide (Homo sapiens, UniProt O95140); test: HR1 peptide-HR2 target binding assay
T1 construct: Gly linker (GGGG after the His tag)
T1 sequence (O95140 with tags, fused parts or gaps limits assumed): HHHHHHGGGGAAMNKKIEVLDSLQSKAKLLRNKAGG
Excerpt: The Mfn-derived fusion-promoting and -inhibiting mini-peptides (simulated to obtain the chemical Mfn agonists in TABLE 1 and TABLE 2) were modified from amino acid heptad repeats (HR) in the HR1 domain and predicted to interact with their counterparts in the carboxyl terminus HR2 domain within the Mfn stalk region (see e.g., FIG. 1, top panel). A high-throughput binding assay was designed whereby the target HR2 peptide sequences, modified to include amino terminal 6×His tags and Gly linkers, were bonded to Ni-chelate resin (20 μg/ml) and used as immobilized “receptor” for amino-FITC-tagged Mfn2 374-384 (agonist ligand) in which the Ser analogous to Ser378 was replaced with Asp to confer the negative charge essential for activity. For antagonist studies the ligand was amino-FITC-tagged Mfn2 406-418. The FITC peptide ligands are suspended at 1 mM in 30% DMSO, 70% water (to minimize spontaneous aggregation) and diluted into binding buffer (de-ionized water) to a final concentration of 25 μM in the presence or absence of competing compound. Dose-dependent loss of resin-bound FITC signal (485 nm excitation/538 nm emission) measured in a 96 well spectrofluorometer represents binding of compound to its HR2 target (see e.g., FIG. 10, FIG. 11). Either the ligand peptide or the receptor peptide can be modified to represent mutations, variations, or posttranslational modifications of Mfn2. […]
Target HR2 peptide sequence modified to include amino terminal 6×His tags and Gly linkers, were bonded to Ni-NTA resin (4.4 μg/ml) (Quiagen) and used as immobilized “receptor” for amino-FITC-tagged Mfn2 374-384 (ligand) in which the Ser analogous to Ser378 was replaced with Asp to confer the negative charge essential for activity. […] Resin-bound FITC signal (485 nm excitation/538 nm emission) measured in a 96 well spectrofluorometer (Spectramax M5e, Molecular Devices) represented binding to HR2 target. Competition binding isotherms were plotted and IC50 values calculated using Prism 7 (Graph Pad).

[2] = system: ALS and HD patient-derived fibroblasts; test: Mitochondrial health in ALS and HD patient-derived fibroblasts; type: cell-based, human
Protocol: HD patient-derived fibroblast cell lines (GM04693 from patient and GM05539 from patient) were purchased from Invitrogen. ALS patient-derived fibroblasts (ALS 1: ND29509 from patient having SOD1 mutation; ALS 2: ND30327 having FUS1 mutation) and fibroblasts of control healthy individuals were purchased from Coriell Institute, USA. All fibroblast cultures were maintained in MEM supplemented with 15% (v/v) FBS and 1% (v/v) penicillin/streptomycin at 37° C. in 5% CO2-95% air. Galactose media was used, to increase mitochondria-dependent metabolism oxidative phosphorylation. Human fibroblasts were switched to grow for 48 h in DMEM deprived of glucose and containing galactose (4.5 g/l), 1% FBS, 5 mM sodium pyruvate and 2 mM L-glutamine for the studies.
Cells cultured in 8-well chamber slides were washed with cold PBS, fixed in 4% formaldehyde, and permeabilized with 0.1% Triton X-100. After incubation with 2% normal goat serum (to block nonspecific staining), fixed cells were incubated overnight at 4° C. with TOM20 antibody (1:500) (Santa Cruz, USA). Cells were washed with PBS and incubated for 60 minutes with FITC-conjugated goat anti-rabbit IgG (1:500 dilution). The cells were then washed gently with PBS and counterstained with Hoechst 33342 (1:10,000 dilution, Molecular Probes) to visualize nuclei. The coverslips were mounted with Slow-fade anti-fade reagent (Invitrogen), and images were acquired at 60× using an All-in-One Fluorescence Microscope BZ-X700 (Keyence).
Cells were incubated with tetra-methyl-rhodamine methyl ester (TMRM, 25 nM, Invitrogen) in HBSS (Hank's balanced salt solution) for 30 min at 37° C., per the manufacture's protocol, and the fluorescence was analyzed to measure mitochondrial membrane potential. All data were normalized with respect to the fluorescence intensity of control cells. To determine mitochondrial ROS production, cells were treated with 5 μM MitoSOX™ Red, a mitochondrial superoxide indicator (Invitrogen) for 20 min at 37° C., according to the manufacturer's protocol, and fluorescence was analyzed using SpectraMax M2e (Molecular devices).

[3] = system: MFN2 T105M sciatic nerves; test: Sciatic nerve axonal mitochondrial motility, agonist applied to nerve; settings: MFN2 T105M mouse sciatic nerve
Protocol: Sciatic nerves of 12-18 week old male or female MFN2 T105M mice were removed en bloc with the lumbar spine and axotomy at the tibial nerve, stained with TMEM ([…]) for 30 minutes in prewarmed Neurobasal Medium without phenol red (Thermo Fisher Scientific) at room temperature, washed, and maintained on the stage of a Nikon A1Rsi Confocal Microscope at 37 degrees C. for time-lapse confocal studies. Images were acquired with a 40× oil immersion objective at 1 frame every 5 or 10 seconds for sequential 10 minute periods. Mitofusin agonist chimera B-A/I was added after the first 10 minute imaging period (final concentrations of […]) and nerve axons imaged for another 40 minutes. Because there was no difference in mitochondrial trafficking or response to mitofusin agonist between male and female mice, the data were combined.

CC1CCCCC1NC(=O)NCCSc1nnc(C2CC2)n1-c1ccccc1 (racemic) [B-A/I, 1-(2-((5-cyclopropyl-4-phenyl-4H-1,2,4-triazol-3-yl)thio)ethyl)-3-(2-methylcyclohexyl)urea]
selectivity of fusogenic effect for MFN2 Ser378 mutants [1]: non-selective
competition for minipeptide binding at MFN2 HR2 site (Mfn2 HR2 target peptide): competed for minipeptide binding
mitochondrial structural defects ([2]; ALS and HD fibroblasts): enhances mitochondrial structural defects
mitochondrial ROS levels ([2]; ALS and HD fibroblasts, MitoSOX): reduces mitochondrial ROS levels
mitochondrial membrane potential ([2]; ALS and HD fibroblasts, TMRM): improves mitochondrial membrane potential
effect on fibroblasts from control subjects ([2]; control fibroblasts): no effect
sciatic nerve axonal mitochondrial motility [3]: rapidly reverses mitochondrial dysmotility; also recorded: restored mitochondrial motility to within normal levels
